Assays:
[1] = target: T1, binding of BI-1 and mTORC2 and ribosomes (Homo sapiens, UniProt P55061); experiment: PLA, immunoprecipitation and gel filtration of BI-1/mTORC2/ribosome binding; assay type: cell-based
T1 construct: expressed in transfected cells
Procedure: The graph below quantifies the fine and bright spots (n=5 independent experiment). The scale bar represents 20 μm. Data were expressed as mean±SD. **p<0.01, ****p<0.0001, followed by a binary ANOVA, followed by Bonferroni's post hoc test.
FIG. 62B is the result of PLA between RICTOR and the following proteins mTOR, RPL19 and RPS 16 in HT1080 cells treated with 10 μM BIA. The scale bar represents 20 μm. The graph on the right quantifies the fine and bright points (n=5 independent experiment). Data were expressed as mean±SD. **p<0.01, ***p<0.001, ****p<0.0001, followed by a binary ANOVA followed by Bonferroni's post hoc test.
HT1080 cells knocked out of BI-1 (using 8 10 cm cell culture dishes for each sample) were temporarily transformed using HA-BI-1 (TMBIM6) plasmids. HT1080 cells knocked out of BI-1 were treated with 10 μM of 2E-1-2-Aminophenyl-3-3-nitrophenyl-2-propen-1-one (BIA). After 24 hours, CHAPS containing protease inhibitor cocktail and phosphatase inhibitor cocktail Cells were lysed in 1.0 ml of buffer (pH 7.4, 150 mM NaCl, 1 mM EDTA and 25 mM HEPES at 0.3% CHAPS). The cell lysate was filtered with a 0.45 μm syringe filter. […] 50 μL of each fraction was electrophoresis with SDS-PAGE and then detected with various antibodies. […]

[2] = tested on: HT1080, PANC-1, Capan-1 and MIA PaCa-2; experiment: Cell viability (crystal violet), BIA versus mTOR inhibitors; assay type: cell-based; conditions: 10 μM

T1 sequence (P55061 whole entry): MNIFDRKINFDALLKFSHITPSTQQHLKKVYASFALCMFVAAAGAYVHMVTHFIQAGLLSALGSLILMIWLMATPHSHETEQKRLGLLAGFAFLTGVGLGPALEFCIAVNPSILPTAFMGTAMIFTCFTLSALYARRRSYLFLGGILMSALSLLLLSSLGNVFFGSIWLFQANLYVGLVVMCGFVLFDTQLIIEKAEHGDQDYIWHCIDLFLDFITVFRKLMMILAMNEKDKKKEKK

Nc1ccccc1C(=O)/C=C/c1cccc([N+](=O)[O-])c1 [BIA, 2E-1-2-Aminophenyl-3-3-nitrophenyl-2-propen-1-one]
protein interactions between mTORC2 and ribosomes or binding of BI-1 and mTORC2 and ribosomes ([1]; HT1080 cells, PLA and immunoprecipitation): inhibited
co-elution pattern with mTORC2 components (mTOR and RICTOR) and ribosomes (RPL19) ([1]; gel filtration, BI-1 overexpressed HT1080 cells, BIA for 24 hours): delayed
cell viability compared to OSI-027 and Voxtalisib and other mTOR inhibitors [2]: significantly reduced

From patent US20240139125A1 (INDUSTRIAL COOPERATION FOUNDATION JEONBUK NATIONAL …, priority 2020, published 2024)
